Experimental findings from patent US12173349B2, “Lung protease nanosensors and uses thereof” (Massachusetts Institute of Technology, priority 2018, dated 2024) are described below.

The subject of one assay is PA01 supernatant. Nature of the assay: cleavage of FRET-paired substrates by bacterial supernatant. In kind it is biochemical, Pseudomonas aeruginosa. As to the method: (§1) The specificity of LAS and ELA for P. aeruginosa cleavage was tested by collecting supernatants from PA01 or Staphylococcus aureus cultures and incubating them with FRET-paired substrates LAS-Q and ELA-Q in 384 well plates. […] To investigate whether the LAS and ELA substrates are also susceptible to cleavage by host proteases, each was incubated with recombinant mouse proteases.
(§2) Supernatant from PA01 and S. aureus were collected and added to substrates in 384 well plates and dequenching of FAM was monitored at 37° C. (Tecan). Fluorescence change at 30 minutes was reported. For recombinant protease assays, enzyme was added to the substrates in enzyme-specific buffer (MMP7 & 9 buffer: 50 mM Tris, 150 mM NaCl, 5 mM CaCl2), […], pH 7.5; Thrombin: PBS; NE: 100 mM HEPES, 500 mM NaCl, 0.05% Tween 20) in a 384 well plate for time-lapse fluorimetry to measure dequenching at 37° C. (Tecan).

For assay [1], the system named is Staphylococcus aureus supernatant. The assay is described as above. In kind it is biochemical. Particulars: S. aureus culture supernatant, fluorescence change at 30 minutes. As to the method:
as §1, §2

The test system of assay [2] is P. aeruginosa clinical isolate strains. Put plainly: cleavage of FRET-paired substrates by clinical isolate supernatants. In kind it is biochemical, Pseudomonas aeruginosa. How it is done:
P. aeruginosa strains isolated from de-identified clinical samples were generously provided by Dr. Deborah Hung, MD, PhD (Massachusetts General Hospital). Cultures of each were grown in LB broth overnight, then were subcultured in fresh LB and each strain grown to OD-matched mid log phase (OD600˜0.5). Supernatants were collected by centrifugation and substrate cleavage was monitored as described above.

For the next assay, the target named is MMP13 (Mus musculus, UniProt P33435). Put plainly: recombinant host protease cleavage assay. The format is biochemical. How it is done: as §1, §2
The next assay concerns the target T1, MMP7 (Mus musculus, UniProt Q10738).
T1 sequence (Q10738 95-264): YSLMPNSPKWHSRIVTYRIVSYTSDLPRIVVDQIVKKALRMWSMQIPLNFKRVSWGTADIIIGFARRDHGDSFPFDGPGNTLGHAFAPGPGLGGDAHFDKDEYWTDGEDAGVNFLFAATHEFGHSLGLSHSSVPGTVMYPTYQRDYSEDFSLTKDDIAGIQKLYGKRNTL
Put plainly: recombinant host protease cleavage assay. In kind it is biochemical. How it is done: as §1, §2

In another assay the target is T2, neutrophil elastase (Mus musculus, UniProt Q3UP87).
T2 sequence (Q3UP87 27-265): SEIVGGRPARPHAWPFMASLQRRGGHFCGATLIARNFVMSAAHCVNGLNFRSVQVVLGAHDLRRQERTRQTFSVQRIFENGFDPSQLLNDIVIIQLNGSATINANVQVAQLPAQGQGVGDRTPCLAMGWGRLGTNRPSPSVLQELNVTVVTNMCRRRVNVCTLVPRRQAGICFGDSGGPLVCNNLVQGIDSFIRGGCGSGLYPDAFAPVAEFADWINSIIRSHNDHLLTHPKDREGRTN
Put plainly: recombinant host protease cleavage assay. In kind it is biochemical. As to the method: as §1, §2

In the next assay the target is thrombin (Mus musculus, UniProt P19221). Nature of the assay: recombinant host protease cleavage assay. In kind it is biochemical. As to the method: as §1, §2
Assay [3] deals with 15 proteases in the LUAD protease panel. Put plainly: in vitro recombinant protease screen of FRET-paired substrates. The format is biochemical. Particulars: fluorescence fold change at 45 minutes; 1 μM substrate, 12.5 nM recombinant enzyme; MP metallo-, SP serine, AP aspartic protease. The source says:
Hundreds of peptide sequences have been previously designed and validated as protease substrates, leveraging known catalytic specificities of different protease families, published datasets and substrate sequences in databases like cutDB and MEROPS (Igarashi et al., Nucleic Acids Res 35, D546-549, 2007; Rawlings et al., Nucleic Acids Res 46, D624-D632, 2018). Fourteen of these substrates were nominated in an effort to cover the specificity profiles of metallo-, serine and aspartic endoproteases, all of which were included in the LUAD protease panel, and the catalytic activity of each protease-substrate pair was characterized. Quenched probes that incorporated the 14 peptide substrates were synthesized such that they fluoresce upon proteolytic cleavage to enable real-time monitoring of protease activity in vitro (FIG. 3A and Table 2). Each probe was incubated with each protease in the panel and fluorescence was monitored over 45 minutes. Shown are sample kinetic plots monitoring dequenching of the 14 FRET-paired probes when incubated with (above) and without (below) recombinant matrix metalloproteinase 3 (MMP3) (FIG. 3B). […] See also FIG. 19.
Fluorogenic protease substrates were synthesized by CPC Scientific. Recombinant proteases were purchased from Enzo Life Sciences, R&D Systems and Haematologic Technologies. For recombinant protease assays, fluorogenic substrates PPQ1-14 (1 μM final concentration) were incubated in 30 μL final volume in appropriate enzyme buffer, according to manufacturer specifications, with 12.5 nM recombinant enzyme at 37° C. (FIG. 3). Proteolytic cleavage of substrates was quantified by increases in fluorescence over time by fluorimeter (Tecan Infinite M200 Pro). Enzyme cleavage rates were quantified as relative fluorescence increase over time normalized to fluorescence before addition of protease. Hierarchical clustering was performed in GENE-E, using fluorescence fold changes at 45 minutes.

The subject of assay [4] is Kras and p53 mutant lung adenocarcinoma (KP mice). Put plainly: urinary ABN readout and random forest classification in KP lung adenocarcinoma model. In kind it is in vivo. Particulars: KP mice. How it is done:
To characterize ABN performance in vivo, 14 protease-sensitive ABNs were administered to KP mice and healthy, age and sex-matched controls at 5, 7.5 and 10.5 weeks after tumor initiation. Mouse bladders were voided one hour after intrapulmonary delivery and all fresh urine produced during the subsequent hour (from 60-120 minutes after administration) was pooled and collected. LC-MS/MS was performed and peak area ratios (defined as peak area of urinary reporter divided by peak area of spiked-in internal standard) of protease-sensitive reporters were mean-normalized within each sample to reduce mouse-to-mouse variation.
A random forest classifier was then sought to be built to enable prospective diagnosis of lung cancer in KP mice. Random forest is a high-performance classifier, applicable to a wide variety of classification tasks, that generates a collection of decision trees (a “forest”) that are sampled to produce classification results (Breiman, Machine Learning 45, 5-32, 2001). A random forest classifier was trained using 50% of control mice at 5 weeks, 7.5 weeks and 10.5 weeks, as well as 50% of KP mice at 7.5 weeks (FIG. 6A). The classifier assigned a probability that each mouse belonged to either the KP cohort or the healthy control cohort (FIG. 6B, “Training” panel), achieving perfect separation of control and KP mice. The classifier was then sought to be tested on an independent validation cohort consisting of classifier-naive KP mice at 5 weeks, 7.5 weeks and 10.5 weeks post-induction, as well as the remaining control mice from each time point.
Male B6/SV129 Kras^LSL-G12D/+; Trp53^fl/fl (KP) mice between 18 and 30 weeks old were used for lung adenocarcinoma experiments. Tumors were initiated, as described previously (DuPage et al., Nat Protoc 4, 1064-1072 (2009)), by the intratracheal administration of 50 μL of adenovirus-SPC-Cre (2.5×10^8 PFU in Opti-MEM with 10 mM CaCl2)) under isoflurane anesthesia. […] Tumor growth was monitored by micro computed tomography (microCT) imaging (General Electric) and was scored by a blinded radiation oncologist using MicroView (Parallax Innovations) (Table 4). Tumor volumes were calculated by using the ROI sphere/elliptical tool.
ABN constructs (GluFib-Substrate-PEG-840 kDa) for urinary experiments were synthesized by CPC Scientific (Sunnyvale, CA). ABNs were dosed (50 μL total volume, 20 μM concentration per ABN) by intratracheal intubation, as described above. Bladders were voided 60 minutes after ABN administration and all urine produced 60-120 min after ABN administration was collected using custom tubes in which the animals rest upon 96-well plates that capture urine. Urine was pooled and frozen at −80° C. until analysis by LC-MS/MS.
Liquid chromatography/tandem mass spectrometry was performed by Syneos Health (Princeton, NJ) using a Sciex 6500 triple quadrupole instrument. Briefly, urine samples were treated with UV irradiation to photocleave the ANP linker and liberate the Glu-Fib reporter from residual peptide fragments. Samples were extracted by solid-phase extraction and analyzed by multiple reaction monitoring by LC-MS/MS to quantify concentration of each Glu-Fib mass variant. Analyte quantities were normalized to a spiked-in internal standard and concentrations were calculated from a standard curve using peak area ratio (PAR) to the internal standard. Mean normalization was performed on PAR values to account for mouse-to-mouse differences in ABN inhalation efficiency and urine concentration.
Principal component analysis (PCA) was performed on mean normalized PAR values in the R statistical environment (Team, R.C. R, R Foundation for Statistical Computing, Vienna, Austria, 2017) using the prcomp function. Binary classification was performed using the Caret package (Kuhn, M. caret: Classification and Regression Training. (2017)) in the R statistical environment). […]

Assay [5] has as its system Eml4-Alk (EA) lung adenocarcinoma model. Put plainly: urinary ABN readout and classification in Eml4-Alk model. The format is in vivo. Particulars: EA mice. From the text:
To assess the generalizability of ABNs to other genetic subtypes by leveraging the Eml4-Alk (EA) model Maddalo et al., Nature 516, 423-428 (2014), an autochthonous model in which intrapulmonary administration of adenovirus encoding two short guide RNAs (sgRNAs) and Cas9 results in translocation and fusion of the Eml4 and Alk genes, yielding lung adenocarcinoma that histologically resembles human disease.
Tumors were initiated in male C57BL/6 mice between 6 and 10 weeks old as described previously (50), by intratracheal administration of 50 μL adenovirus expressing the Ad-EA vector (Viraquest) (1.5×10^8 PFU in Opti-MEM with 10 mM CaCl2)).
It was determined whether the lung nanosensors could be prospectively applied to diagnose disease. […] The classifier was also evaluated on a test cohort that combined both LUAD models and again found strong classification at 7.5 weeks and 10.5 weeks (AUC7.5 wk s=0.97; AUC10.5 wk s=0.93) (FIG. 17C).
For all urine experiments, PAR values were normalized to ABN stock concentrations and then mean normalized across all reporters in a given urine sample prior to further statistical analysis. […] Ten independent train-test trials were run for each classification problem, and classification performance was evaluated with receiver operating characteristic (ROC) statistics calculated in MATLAB. […]

Where no end group is shown, it is not given here. [ ]: non-standard residue; d: D form. FAM = carboxyfluorescein fluorophore label

As for “ELA-Q: FRET-paired (FAM fluorophore, Dabcyl quencher) substrate for elastases including neutrophil elastase; includes SEQ ID NO: 47 (GAAFAGK(FAM); also: Dabcyl quencher, site not given here)”, the “cleavage by supernatant (fluorescence signal)” value in the assay with PA01 supernatant (PA01 culture supernatant, fluorescence change at 30 minutes) is listed as “Significant increases”; in assay [1] it was “Significant increases”. The “cleavage potency by Michaelis-Menten type analysis” value in the assay with PA01 supernatant (range of substrate concentrations, compared with LAS substrate) is reported as “more potently cleaved”. Moreover, the “extent of cleavage compared with LAS-Q” value in [2] (bacterial-derived proteases) was “more extensively cleaved”. Besides, in assay [2] (five clinical isolate strains), the “strains whose supernatant gave significant cleavage” value is given as 3 of the 5 strains. The “cleavage by recombinant protease” value with MMP13 was “resist cleavage”; with MMP7, “resist cleavage”; in the assay with neutrophil elastase, “cleaved”; with thrombin, “resist cleavage”.

Consider “PP01: ABN: reporter e(+2G)(+6V)ndneeGFFsAr, ANP, substrate PQGIWGQ, nanocarrier PEG8-40 kDa (chain 1 [dE]G[+6V][dN][dD][dN][dE][dE]GFF[dS]A[dR]; not fully specified (some residues); printed as PP01: ABN: reporter e(+2G)(+6V)ndneeGFFsAr, ANP, substrate PQGIWGQ, nanocarrier PEG8-40 kDa; also: ANP photolabile linker, PEG8-40 kDa nanocarrier, linkage of reporter, ANP, substrate and carrier not given here)”, for which the “protease class(es) cleaving the substrate in vitro” value in assay [3] was “metalloprotease-specific”. The figures for the urinary reporter enrichment entry in assay [4] and in assay [5] were “not in KP mice” and “consistent enrichment”, respectively.
